Positions of bridges follow the written chain, without caps; N, C: chain ends. Non-standard residues stand in square brackets, D forms with d. Residues, ends and D or L forms follow the SMILES beside them. hArg = N=C(N)NCCCC[C@H](N)C(=O)O; Mpa = O=C(O)CCS
Assays:
[1] = cited from earlier work
platelets = test: Transmission light aggregometry, collagen-induced platelet aggregation in PRP; format: cell-based; settings: collagen 10 µg/mL, all concentrations tested, FIG. 1
Text: Plasma samples with platelet or thrombosomes or combination of both are loaded into cuvettes and placed into the aggregometry chambers. The chambers warm the sample and provide constant stirring. The initiation of aggregation can be done by multiple types of […] agents not limited to thrombin, ADP, collagen and any agent known to stimulate platelet aggregation. The samples can also have been taken as ex-vivo, or in-vitro supplemented with inhibitors. The instrument begins the assay by first recording the light transmission previous to stimulation for 2 minutes. The stimulant of interest is then introduced by the technician and the change in light transmission is recorded over time. The increase in light transmission corresponds to increase in platelet aggregation.
The aggregation of platelets (in platelet rich plasma) was evaluated using transmission light aggregometry. […] (FIG. 1).

platelet rich plasma = test: T-TAS flow system occlusion of platelet rich plasma (collagen and tissue factor coated channel); format: cell-based; settings: untreated 18.43
Text: (§1) Evaluation by T-TAS® using an AR chip. AR chips are characterized by a single channel containing collagen and tissue factor; they can be used to analyze clotting and platelet function.

whole blood = test: T-TAS AR chip occlusion of whole blood under shear; format: cell-based
Text: as §1

NOD/SCID mice = test: Tail-snip bleed model in clopidogrel-treated mice; format: in vivo, mouse; settings: ~3 times the clinical dose of clopidogrel for 5 days; untreated 9 minutes
Method: The mouse was treated with clopidogrel for 5 days. The mouse was anesthetized, the tail end was snipped off followed by thrombosomes being immediately administered. The time from tail snip to tail stop bleeding was recorded by visual inspection.
NOD/SCID mice were treated with ~ 3 times the clinical dose of clopidogrel for 5 days then assessed in the tail-snip bleed model. The bleed time (min) was extended to 17.8 minutes with clopidogrel treatment verses untreated at 9 minutes (data not shown).

thrombin = test: Thrombin generation in plasma; format: biochemical, human; settings: PPP from patients taking baby aspirin daily; normal range about 66-166 nM; FIG. 18
Method: Reagent Preparation. For thrombin generation, the following materials were used from manufacturers, as follows: FluCa Kit (Diagnostica Stago, Cat. No. 86197), Thrombin calibrator (Diagnostica Stago, Cat. No. 86197), PRP Reagent (Diagnostica Stago, Cat. No. 86196), OCTOPLAS®, a solvent detergent treated human pooled plasma (Octapharma, Cat. No. 8-68209-952-04). All frozen reagents were thawed in a 37° C. water bath before use. All reagents were rehydrated with sterile water using the volume printed on the reagent labels. Approximately 2 min after rehydration, the reagents were mixed by inverting vials 5 times, so no chunks or powder left; vortexing was not used. […]
Sample Analysis - Plate preparation and testing. For experiments containing thrombosomes, a thrombosomes dilution series was generated (dilutions of 194.4 K, 64.8 K, 21.6 K, and 7.2 K per µL were typically used; cell counts are determined by flow cytometry) for each the experimental thrombosomes and the reference thrombosomes. […] The plate was then incubated in the Fluoroskan Ascent 96 well fluorescent plate reader (Thrombinoscope) (ThermoFisher Scientific) for 10 minutes. […] The plate fluorescence was monitored for 75 minutes at an interval of 20 seconds and a temperature of 40-41° C.
The effect of aspirin treatment (concentration) on thrombin generation was measured. […]

## N=C(N)NCCCC[C@@H]1NC(=O)CCSSC[C@@H](C(N)=O)NC(=O)[C@@H]2CCCN2C(=O)[C@H](Cc2c[nH]c3ccccc23)NC(=O)[C@H](CC(=O)O)NC(=O)CNC1=O [eptifibatide] ([Mpa][hArg]GDWPC-NH2; disulfide 1-7)
[1]; IV 180 µg/kg bolus followed by 2 µg/kg/min continuous infusion, typical
  blood concentration: 1000 to 2000 nM
[1]; generally
  time for bleeding time to return to normal after drug stoppage: ≤ 1 h
platelets
  collagen-induced platelet aggregation: completely inhibited
Platelet rich plasma; 9 µM eptifibatide, FIGS. 10A, 10B
  occlusion time of platelet rich plasma: over 30 minutes
Whole blood; 6 µM eptifibatide, untreated whole blood occluded at 8 minutes, FIG. 2
  occlusion time of whole blood on T-TAS AR Chip: 16 min
Whole blood; eptifibatide at various concentrations
  effect on occlusion time of whole blood on T-TAS AR Chip: dose-dependent manner

## COC(=O)[C@H](c1ccccc1Cl)N1CCc2sccc2C1 [clopidogrel]
NOD/SCID mice
  bleed time: 17.8 min

## CCCCS(=O)(=O)N[C@@H](Cc1ccc(OCCCCC2CCNCC2)cc1)C(=O)O [tirofiban]
Platelet rich plasma; 100 ng/mL tirofiban, FIGS. 9A, 9B
  occlusion time of platelet rich plasma: no occlusion

## CC(=O)Oc1ccccc1C(=O)O [aspirin]
thrombin
  peak thrombin of aspirin plasma in absence of thrombosomes: about 45 nM

From patent US20230248772A1, “PRODUCTS AND METHODS USING A PLATELET-DERIVED HEMOSTATIC AGENT FOR CONTROLLING BLEEDING AND IMPROVING HEALING” (Cellphire, Inc., priority 2015, published 2023)
